The molecules below were run against T1, glucocorticoid receptor (GR) (Homo sapiens, UniProt P04150) (assay: Assay for agonist activity on glucocorticoid receptor (luciferase reporter, HEK293 cells transfected with pBIND-GR plasmid)). Conditions: HEK293 cells transfected with pBIND-GR, luciferase signal; read-out: GR agonist EC50.
T1 sequence (P04150 521-777): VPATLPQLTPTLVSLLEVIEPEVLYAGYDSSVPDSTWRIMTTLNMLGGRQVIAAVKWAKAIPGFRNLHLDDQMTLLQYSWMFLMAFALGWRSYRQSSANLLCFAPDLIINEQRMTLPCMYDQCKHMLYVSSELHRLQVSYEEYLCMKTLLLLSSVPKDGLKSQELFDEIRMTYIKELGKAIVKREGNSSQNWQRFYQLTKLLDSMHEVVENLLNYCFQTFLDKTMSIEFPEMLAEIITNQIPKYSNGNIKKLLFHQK
Type: cell-based
Experimental: Pharmacological Example 1: Assay for Agonist Activity on Glucocorticoid Receptor (GR)
The test compounds were subjected to a 4-fold serial dilution starting from an initial concentration of 10 µ M, generating a 10-point concentration gradient with duplicate wells for each concentration. The blank control consisted of 0.1 % DMSO.
The HEK293 stable cell line […] transfected with glucocorticoid receptor (GR) (ICE Bioscience, Lot No. TYP-20220519) was cultured in Dulbecco's Modified Eagle Medium (DMEM) supplemented with 10% fetal bovine serum (FBS) and 200 µ g/ml Hygromycin B in a cell incubator containing 5% CO2 at 37 °C. The spent medium was aspirated and the cells were washed once with phosphate-buffered saline (PBS). Then, 1 mL of TrypLE™ Express solution was added, and the cells were incubated at 37 °C for approximately 2 min. When the cells detached from the bottom of the cell culture dish, approximately 5 mL of pre-warmed complete medium at 37 °C was added. The cell suspension was gently pipetted with a pipette to dissociate clumped cells. The cell suspension was transferred to a sterile centrifuge tube and centrifuged at 1000 rpm for 5 min to pellet the cells for experiments or subculture.
HEK293 cells were digested and seeded into 6-cm culture dishes. The pBIND-GR plasmid was transfected into the HEK293 cells using a transfection reagent, resulting in HEK293 cells successfully transfected with the pBIND-GR plasmid. The cells were resuspended in phenol red-free DMEM medium containing 5% charcoal-stripped serum, counted, and then seeded into 96-well plates. The test compounds were added, and the plates were then incubated in an incubator. The luminescence signal values were measured using a multimode microplate reader following the instructions of the luciferase assay kit. The EC50 values of each test compound were calculated using the nonlinear fitting formula with GraphPad Prism 8.0 software.

Structure (SMILES)	EC50 [nM]
C[C@]12C=CC(=O)C=C1[C@@H](F)C[C@H]1[C@@H]3C[C@H]4OC(C5CCN(C(=O)C6COC(=O)C6)CC5)O[C@@]4(C(=O)CO)[C@@]3(C)C[C@H](O)[C@@]12F (stereo partly drawn) [Compound 1, (2S,6aS,6bR,7S,8aS,8bS,11aR,12aS,12bS)-2,6b-Difluoro-7-hydroxy-8b-(2-hydroxyacetyl)-6a,8a-dimethyl-10-(1-(5-oxotetrahydrofuran-3-carbonyl)piperidin-4-yl)-1,2,6a,6b,7,8,8a,8b,11a,12,12a,1 2b-dodecahydro-4H-naphtho[2',1':4,5]indeno[1,2-d][1,3]dioxol-4-one]	20.3
C[C@]12C=CC(=O)C=C1[C@@H](F)C[C@H]1[C@@H]3C[C@H]4OC(c5ccc(NC(=O)C6COC(=O)C6)cc5)O[C@@]4(C(=O)CO)[C@@]3(C)C[C@H](O)[C@@]12F (stereo partly drawn) [Compound 2, N-(4-((2S,6aS,6bR,7S,8aS,8bS,11aR,12aS,12bS)-2,6b-Difluoro-7-hydroxy-8b-(2-hydroxyacetyl)-6a,8a-dimethyl-4-oxo-2,4,6a,6b,7,8,8a,8b,11a,12,12a,12b-dodecahydro-1H-naphtho[2',1':4,5]indeno[1,2-d][1,3]dioxol-10-yl)phenyl)-5-oxotetrahydrofuran-3-carboxamide]	12.2
C[C@]12C=CC(=O)C=C1[C@@H](F)C[C@H]1[C@@H]3C[C@H]4OC(C5CCC(NC(=O)C6COC(=O)C6)CC5)O[C@@]4(C(=O)CO)[C@@]3(C)C[C@H](O)[C@@]12F (stereo partly drawn) [Compound 3, N-(4-((2S,6aS,6bR,7S,8aS,8bS,11aR,12aS,12bS)-2,6b-Difluoro-7-hydroxy-8b-(2-hydroxyacetyl)-6a,8a-dimethyl-4-oxo-2,4,6a,6b,7,8,8a,8b,11a,12,12a,12b-dodecahydro-1H-naphtho[2',1':4,5]indeno[1,2-d][1,3]dioxol-10-yl)cyclohexyl)-5-oxotetrahydrofuran-3-carboxamide]	17.6
C[C@]12C=CC(=O)C=C1[C@@H](F)C[C@H]1[C@@H]3C[C@H]4OC(C5CCC(NC(=O)C6COC(=O)C6)CC5)O[C@@]4(C(=O)SCF)[C@@]3(C)C[C@H](O)[C@@]12F (stereo partly drawn) [Compound 6, S-(Fluoromethyl) (2S,6aS,6bR,7S,8aS,8bS,11aR,12aS,12bS)-2,6b-difluoro-7-hydroxy-6a,8a-dimethyl-4-oxo-10-(4-(5-oxotetrahydrofuran-3-carboxamido)cyclohexyl)-1,2,4,6a,6b,7,8,8a,11a,12,12a,12b-dodecahydro-8bH-naphtho[2',1':4,5]indeno[1,2-d][1,3]dioxole-8b-carbothioate]	8.69
C[C@]12C=CC(=O)C=C1[C@@H](F)C[C@H]1[C@@H]3C[C@H]4OC(c5ccc(COC6COC(=O)C6)cc5)O[C@@]4(C(=O)CO)[C@@]3(C)C[C@H](O)[C@@]12F (stereo partly drawn) [Compound 10, (2S,6aS,6bR,7S,8aS,8bS,11aR,12aS,12bS)-2,6b-Difluoro-7-hydroxy-8b-(2-hydroxyacetyl)-6a,8a-dimethyl-10-(4-(((5-oxotetrahydrofuran-3-yl)oxy)methyl)phenyl)-1,2,6a,6b,7,8,8a,8b,11a,12,12a,1 2b-dodecahydro-4H-naphtho[2',1':4,5]indeno[1,2-d][1,3]dioxol-4-one]	2.65
C[C@]12C=CC(=O)C=C1[C@@H](F)C[C@H]1[C@@H]3C[C@H]4OC(c5ccc(CNC6COC(=O)C6)cc5F)O[C@@]4(C(=O)CO)[C@@]3(C)C[C@H](O)[C@@]12F (stereo partly drawn) [Compound 12, (2S,6aS,6bR,7S,8aS,8bS,11aR,12aS,12bS)-2,6b-Difluoro-10-(2-fluoro-4-(((5-oxotetrahydrofuran-3-yl)amino)methyl)phenyl)-7-hydroxy-8b-(2-hydroxyacetyl)-6a,8a-dimethyl-1,2,6a,6b,7,8,8a,8b,1 1a,12,12a,12b-dodecahydro-4H-naphtho[2',1':4,5]indeno[1,2-d][1,3]dioxol-4-one]	4.06
C[C@]12C=CC(=O)C=C1[C@@H](F)C[C@H]1[C@@H]3C[C@H]4OC(c5ccc(NCC6CCOC6=O)cc5)O[C@@]4(C(=O)CO)[C@@]3(C)C[C@H](O)[C@@]12F (stereo partly drawn) [Compound 15, (2S,6aS,6bR,7S,8aS,8bS,11aR,12aS,12bS)-2,6b-Difluoro-7-hydroxy-8b-(2-hydroxyacetyl)-6a,8a-dimethyl-10-(4-(((2-oxotetrahydrofuran-3-yl)methyl)amino)phenyl)-1,2,6a,6b,7,8,8a,8b,11a,12,12 a,12b-dodecahydro-4H-naphtho[2',1':4,5]indeno[1,2-d][1,3]dioxol-4-one]	6.12
C[C@]12C=CC(=O)C=C1CC[C@H]1[C@@H]3C[C@H]4OC(c5ccc(COC6COC(=O)C6)cc5)O[C@@]4(C(=O)CO)[C@@]3(C)C[C@H](O)[C@@]12F (stereo partly drawn) [Compound 19, (6aS,6bR,7S,8aS,8bS,11aR,12aS,12bS)-6b-Fluoro-7-hydroxy-8b-(2-hydroxyacetyl)-6a,8a-dimethyl-10-(4-(((5-oxotetrahydrofuran-3-yl)oxy)methyl)phenyl)-1,2,6a,6b,7,8,8a,8b,11a,12,12a,12b-do decahydro-4H-naphtho[2',1':4,5]indeno[1,2-d][1,3]dioxol-4-one]	0.91
C[C@]12C=CC(=O)C=C1CC[C@H]1[C@@H]3C[C@H]4OC(c5ccc(COC6COC(=O)C6)cc5)O[C@@]4(C(=O)CO)[C@@]3(C)C[C@H](O)[C@@]12Cl (stereo partly drawn) [Compound 25, (6aS,6bR,7S,8aS,8bS,11aR,12aS,12bS)-6b-Chloro-7-hydroxy-8b-(2-hydroxyacetyl)-6a,8a-dimethyl-10-(4-(((5-oxotetrahydrofuran-3-yl)oxy)methyl)phenyl)-1,2,6a,6b,7,8,8a,8b,11a,12,12a,12b-do decahydro-4H-naphtho[2',1':4,5]indeno[1,2-d][1,3]dioxol-4-one]	1.3
C[C@]12C=CC(=O)C=C1CC[C@H]1[C@@H]3C[C@H]4OC(c5ccc(CNC6COC(=O)C6)cc5)O[C@@]4(C(=O)CO)[C@@]3(C)C[C@H](O)[C@@]12Cl (stereo partly drawn) [Compound 27, (6aS,6bR,7S,8aS,8bS,11aR,12aS,12bS)-6b-Chloro-7-hydroxy-8b-(2-hydroxyacetyl)-6a,8a-dimethyl-10-(4-(((5-oxotetrahydrofuran-3-yl)amino)methyl)phenyl)-1,2,6a,6b,7,8,8a,8b,11a,12,12a,12b-dodecahydro-4H-naphtho[2',1':4,5]indeno[1,2-d][1,3]dioxol-4-one]	1.82
C[C@]12C=CC(=O)C=C1CC[C@@H]1[C@@H]2[C@@H](O)C[C@@]2(C)[C@H]1C[C@H]1OC(c3ccc(COC4CCOC4=O)cc3)O[C@]12C(=O)CO (stereo partly drawn) [Compound 28, (6aR,6bS, 7S,8aS,8bS,11aR,12aS,12bS)-7-Hydroxy-8b-(2-hydroxyacetyl)-6a,8a-dimethyl-10-(4-(( (2-oxotetrahydrofuran-3-yl)oxy)methyl)phenyl)-1,2,6a,6b,7,8,8a,8b,11a,12,12a,12b-dodecahydro-4H-naphtho[2',1':4,5]indeno[1,2-d][1,3]dioxol-4-one]	4.24
C[C@]12C=CC(=O)C=C1CC[C@@H]1[C@@H]2[C@@H](O)C[C@@]2(C)[C@H]1C[C@H]1OC(c3ccc(CSC4CCOC4=O)cc3)O[C@]12C(=O)CO (stereo partly drawn) [Compound 29, (6aR,6bS, 7S,8aS,8bS,11aR,12aS,12bS)-7-Hydroxy-8b-(2-hydroxyacetyl)-6a,8a-dimethyl-10-(4-(( (2-oxotetrahydrofuran-3-yl)thio)methyl)phenyl)-1,2,6a,6b,7,8,8a,8b,11a,12,12a,12b-dodecahydro-4H-naphtho[2',1':4,5]indeno[1,2-d][1,3]dioxol-4-one]	3.66
C[C@]12C=CC(=O)C=C1CC[C@@H]1[C@@H]2[C@@H](O)C[C@@]2(C)[C@H]1C[C@H]1OC(c3ccc(CNC4CCOC4=O)cc3)O[C@]12C(=O)CO (stereo partly drawn) [Compound 30, (6aR,6bS, 7S,8aS,8bS,11aR,12aS,12bS)-7-Hydroxy-8b-(2-hydroxyacetyl)-6a,8a-dimethyl-10-(4-(( (2-oxotetrahydrofuran-3-yl)amino)methyl)phenyl)-1,2,6a,6b,7,8,8a,8b,11a,12,12a,12b-dodecahydr o-4H-naphtho[2',1':4,5]indeno[1,2-d][1,3]dioxol-4-one]	7.2
C[C@]12C=CC(=O)C=C1CC[C@@H]1[C@@H]2[C@@H](O)C[C@@]2(C)[C@H]1C[C@H]1OC(c3ccc(COC4COC(=O)C4)cc3)O[C@]12C(=O)CO (stereo partly drawn) [Compound 31, (6aR,6bS, 7S,8aS,8bS,11aR,12aS,12bS)-7-Hydroxy-8b-(2-hydroxyacetyl)-6a,8a-dimethyl-10-(4-(( (5-oxotetrahydrofuran-3-yl)oxy)methyl)phenyl)-1,2,6a,6b,7,8,8a,8b,11a,12,12a,12b-dodecahydro-4H-naphtho[2',1':4,5]indeno[1,2-d][1,3]dioxol-4-one]	8.13
